Experimental data from PubChem BioAssay (NCI).
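Growth conditions: 96-well plates. Treatment: test compound, 48 hours, 5 concentrations. Analysis: linear interpolation between bracketing concentrations; unreached endpoints set to highest concentration. Here, GI50 denotes the concentration required for 50% inhibition of growth. TGI marks complete inhibition of growth.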

What was measured:
Assay in all cases: NCI tumour cell line growth inhibition, 48 h
SK-MEL-5 melanoma = test system: SK-MEL-5 melanoma
LOX IMVI melanoma = test system: LOX IMVI melanoma
SF-295 CNS = test system: SF-295 CNS
OVCAR-5 ovarian = test system: OVCAR-5 ovarian
HCT-15 colon = test system: HCT-15 colon
RPMI-8226 leukemia = test system: RPMI-8226 leukemia
MALME-3M melanoma = test system: MALME-3M melanoma
EKVX NSCLC = test system: EKVX NSCLC
UO-31 renal = test system: UO-31 renal
HOP-92 NSCLC = test system: HOP-92 NSCLC
M14 melanoma = test system: M14 melanoma
OVCAR-3 ovarian = test system: OVCAR-3 ovarian
HT29 colon = test system: HT29 colon
SK-MEL-2 melanoma = test system: SK-MEL-2 melanoma
UACC-257 melanoma = test system: UACC-257 melanoma
NCI-H226 lung = test system: NCI-H226 lung
NCI-H23 lung = test system: NCI-H23 lung
HCT-116 colon = test system: HCT-116 colon
MDA-MB-435 = test system: MDA-MB-435
HCC-2998 colon = test system: HCC-2998 colon
COLO 205 colon = test system: COLO 205 colon
IGROV1 ovarian = test system: IGROV1 ovarian
SK-OV-3 ovarian = test system: SK-OV-3 ovarian
PC-3 prostate = test system: PC-3 prostate
SNB-75 CNS = test system: SNB-75 CNS
HL-60(TB) leukemia = test system: HL-60(TB) leukemia
KM12 colon = test system: KM12 colon
SF-268 CNS = test system: SF-268 CNS
A498 renal = test system: A498 renal
NCI/ADR-RES ovarian = test system: NCI/ADR-RES ovarian
UACC-62 melanoma = test system: UACC-62 melanoma
ACHN renal = test system: ACHN renal
T-47D breast = test system: T-47D breast
CCRF-CEM leukemia = test system: CCRF-CEM leukemia
NCI-H460 lung = test system: NCI-H460 lung
NCI-H522 lung = test system: NCI-H522 lung
A549 NSCLC = test system: A549 NSCLC
SNB-19 CNS = test system: SNB-19 CNS
OVCAR-4 ovarian = test system: OVCAR-4 ovarian
U251 CNS = test system: U251 CNS
K-562 leukemia = test system: K-562 leukemia
SK-MEL-28 melanoma = test system: SK-MEL-28 melanoma
HOP-62 NSCLC = test system: HOP-62 NSCLC
SW-620 colon = test system: SW-620 colon
SN12C renal = test system: SN12C renal
SF-539 CNS = test system: SF-539 CNS
CAKI-1 renal = test system: CAKI-1 renal
MOLT-4 leukemia = test system: MOLT-4 leukemia
SR leukemia = test system: SR leukemia
TK-10 renal = test system: TK-10 renal
MCF7 breast = test system: MCF7 breast
MDA-MB-231 breast = test system: MDA-MB-231 breast
OVCAR-8 ovarian = test system: OVCAR-8 ovarian
DU-145 prostate = test system: DU-145 prostate
786-0 renal = test system: 786-0 renal
RXF 393 renal = test system: RXF 393 renal

COc1cc(C2CC(c3ccc(SC)cc3)=NN2C(C)=O)cc(OC)c1OC (configuration not stated)
GI50 (SK-MEL-5 melanoma): 4.04 µM | TGI (SK-MEL-5 melanoma): 16.1 µM | GI50 (LOX IMVI melanoma): 7.1 µM | TGI (LOX IMVI melanoma): > 100 µM | GI50 (SF-295 CNS): 1.23 µM | TGI (SF-295 CNS): 4.64 µM | GI50 (OVCAR-5 ovarian): 44.5 µM | TGI (OVCAR-5 ovarian): > 100 µM | GI50 (HCT-15 colon): 5.09 µM | TGI (HCT-15 colon): > 100 µM | GI50 (RPMI-8226 leukemia): 6.51 µM | TGI (RPMI-8226 leukemia): 96 µM | GI50 (MALME-3M melanoma): 53.6 µM | TGI (MALME-3M melanoma): > 100 µM | GI50 (EKVX NSCLC): 17.7 µM | TGI (EKVX NSCLC): > 100 µM | GI50 (UO-31 renal): 15.9 µM | TGI (UO-31 renal): 77.4 µM | GI50 (HOP-92 NSCLC): 16 µM | TGI (HOP-92 NSCLC): 97.1 µM | GI50 (M14 melanoma): 3.91 µM | TGI (M14 melanoma): 38.4 µM | GI50 (OVCAR-3 ovarian): 3.76 µM | TGI (OVCAR-3 ovarian): 22.8 µM | GI50 (HT29 colon): 4.2 µM | TGI (HT29 colon): > 100 µM | GI50 (SK-MEL-2 melanoma): 10.5 µM | TGI (SK-MEL-2 melanoma): 60.3 µM | GI50 (UACC-257 melanoma): 42 µM | TGI (UACC-257 melanoma): > 100 µM | GI50 (NCI-H226 lung): 19.8 µM | TGI (NCI-H226 lung): 45.6 µM | GI50 (NCI-H23 lung): 24.3 µM | TGI (NCI-H23 lung): > 100 µM | GI50 (HCT-116 colon): 4.28 µM | TGI (HCT-116 colon): 21 µM | GI50 (MDA-MB-435): 1.95 µM | TGI (MDA-MB-435): 5.55 µM | GI50 (HCC-2998 colon): 12.1 µM | TGI (HCC-2998 colon): 38.7 µM | GI50 (COLO 205 colon): 5.38 µM | TGI (COLO 205 colon): 21.6 µM | GI50 (IGROV1 ovarian): 6.38 µM | TGI (IGROV1 ovarian): > 100 µM | GI50 (SK-OV-3 ovarian): 17.1 µM | TGI (SK-OV-3 ovarian): 95.9 µM | GI50 (PC-3 prostate): 16.2 µM | TGI (PC-3 prostate): > 100 µM | GI50 (SNB-75 CNS): 4.99 µM | TGI (SNB-75 CNS): 50.9 µM | GI50 (HL-60(TB) leukemia): 2.68 µM | TGI (HL-60(TB) leukemia): 12.1 µM | GI50 (KM12 colon): 3.89 µM | TGI (KM12 colon): 44.9 µM | GI50 (SF-268 CNS): 11.9 µM | TGI (SF-268 CNS): > 100 µM | GI50 (A498 renal): 12.6 µM | TGI (A498 renal): 49.3 µM | GI50 (NCI/ADR-RES ovarian): 7.56 µM | TGI (NCI/ADR-RES ovarian): > 100 µM | GI50 (UACC-62 melanoma): 9.86 µM | TGI (UACC-62 melanoma): > 100 µM | GI50 (ACHN renal): 18.2 µM | TGI (ACHN renal): > 100 µM | GI50 (T-47D breast): 8.9 µM | TGI (T-47D breast): > 100 µM | GI50 (CCRF-CEM leukemia): 9.49 µM | TGI (CCRF-CEM leukemia): > 100 µM | GI50 (NCI-H460 lung): 4.14 µM | TGI (NCI-H460 lung): 16.9 µM | GI50 (NCI-H522 lung): 23.8 µM | TGI (NCI-H522 lung): > 100 µM | GI50 (A549 NSCLC): 9.63 µM | TGI (A549 NSCLC): > 100 µM | GI50 (SNB-19 CNS): 7.04 µM | TGI (SNB-19 CNS): > 100 µM | GI50 (OVCAR-4 ovarian): 34.2 µM | TGI (OVCAR-4 ovarian): > 100 µM | GI50 (U251 CNS): 7.27 µM | TGI (U251 CNS): > 100 µM | GI50 (K-562 leukemia): 3.47 µM | TGI (K-562 leukemia): 20.8 µM | GI50 (SK-MEL-28 melanoma): 16.6 µM | TGI (SK-MEL-28 melanoma): > 100 µM | GI50 (HOP-62 NSCLC): 16.1 µM | TGI (HOP-62 NSCLC): 66.3 µM | GI50 (SW-620 colon): 4.49 µM | TGI (SW-620 colon): > 100 µM | GI50 (SN12C renal): 28.5 µM | TGI (SN12C renal): > 100 µM | GI50 (SF-539 CNS): 10 µM | TGI (SF-539 CNS): 38 µM | GI50 (CAKI-1 renal): 7.11 µM | TGI (CAKI-1 renal): 70 µM | GI50 (MOLT-4 leukemia): 5.2 µM | TGI (MOLT-4 leukemia): > 100 µM | GI50 (SR leukemia): 1.94 µM | TGI (SR leukemia): 14.2 µM | GI50 (TK-10 renal): 22.9 µM | TGI (TK-10 renal): 78.1 µM | GI50 (MCF7 breast): 4.47 µM | TGI (MCF7 breast): 77.5 µM | GI50 (MDA-MB-231 breast): 20.1 µM | TGI (MDA-MB-231 breast): > 100 µM | GI50 (OVCAR-8 ovarian): 25.2 µM | TGI (OVCAR-8 ovarian): > 100 µM | GI50 (DU-145 prostate): 16.5 µM | TGI (DU-145 prostate): 50.6 µM | GI50 (786-0 renal): 14.1 µM | TGI (786-0 renal): 70.4 µM | GI50 (RXF 393 renal): 13.2 µM | TGI (RXF 393 renal): 43.6 µM
